The values that follow come from PubChem BioAssay AID342 (DTP/NCI, 2004).

In the test the test system is Swiss mice, Sarcoma 180 sc, mean tumor weight T/C. The experiment in a line: NCI In Vivo Anticancer Drug Screen. Data for tumor model Sarcoma 180 (subcutaneous) in Swiss mice. The following applies: endpoint: mean tumor weight, higher = larger tumour. Summed up: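 Transplantable tumors were established in mice, compound was given, then survival or tumor size was recorded. The treated value was divided by the vehicle-control value.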

Where [1] appears, read: dose: 250.0 mg/kg/injection, schedule: Q01DX007 (ip), vehicle: carboxymethylcellulose (CMC).
The mark [2] stands for this setting: dose: 1000.0 mg/kg/injection, schedule: Q01DX007 (ip), vehicle: carboxymethylcellulose (CMC).
The mark [3] stands for this setting: dose: 20.0 mg/kg/injection, schedule: Q01DX007 (ip), vehicle: carboxymethylcellulose (CMC).
The mark [4] stands for this setting: dose: 50.0 mg/kg/injection, schedule: Q01DX007 (ip), vehicle: carboxymethylcellulose (CMC).
Setting [5] is: dose: 100.0 mg/kg/injection, schedule: Q01DX007 (ip), vehicle: carboxymethylcellulose (CMC).

Where “and” joins values, the source holds several entries; their conditions need not be identical. Equal values may be shown once.

On to `O=CN(O)CC(=O)O`, for which the T/C reads like this: (dose: 62.5 mg/kg/injection, schedule: Q01DX007 (ip), vehicle: carboxymethylcellulose (CMC)) 105 % of control; under setting [1], 83 % of control; (dose: 500.0 mg/kg/injection, schedule: Q01DX007 (ip), vehicle: carboxymethylcellulose (CMC)) 84 % of control; (dose: 750.0 mg/kg/injection, schedule: Q01DX007 (ip), vehicle: carboxymethylcellulose (CMC)) 62 % of control; under setting [2], 61 % of control.
For the molecule `NC(Cc1cccs1)C(=O)O` (centres undefined), the T/C (dose: 175.0 mg/kg/injection, schedule: Q01DX007 (ip), vehicle: carboxymethylcellulose (CMC)) is 95 % of control; the T/C under setting [1] was 81 % of control; the T/C under setting [2] is 108 % of control.
Turning to `CCCCN(C)/N=N/c1nc[nH]c1C(N)=O`, the T/C (dose: 31.0 mg/kg/injection, schedule: Q01DX007 (ip), vehicle: carboxymethylcellulose (CMC)) was 44 % of control; the T/C (dose: 62.0 mg/kg/injection, schedule: Q01DX007 (ip), vehicle: carboxymethylcellulose (CMC)) was 31 % of control; the T/C (dose: 125.0 mg/kg/injection, schedule: Q01DX007 (ip), vehicle: carboxymethylcellulose (CMC)) was 14 % of control.
On to `Cc1cc2nc(Cc3nc4cc(C)c(C)cc4[nH]3)[nH]c2cc1C`, for which the T/C by setting is: under setting [3], 86 % of control; (dose: 40.0 mg/kg/injection, schedule: Q01DX007 (ip), vehicle: carboxymethylcellulose (CMC)) 85 % of control; (dose: 60.0 mg/kg/injection, schedule: Q01DX007 (ip), vehicle: carboxymethylcellulose (CMC)) 80 % of control and 81 % of control; (dose: 80.0 mg/kg/injection, schedule: Q01DX007 (ip), vehicle: carboxymethylcellulose (CMC)) 102 % of control; (dose: 90.0 mg/kg/injection, schedule: Q01DX007 (ip), vehicle: carboxymethylcellulose (CMC)) 67 % of control; (dose: 120.0 mg/kg/injection, schedule: Q01DX007 (ip), vehicle: carboxymethylcellulose (CMC)) 122 % of control. The T/C is, setting by setting: (dose: 160.0 mg/kg/injection, schedule: Q01DX007 (ip), vehicle: carboxymethylcellulose (CMC)) 77 % of control; (dose: 180.0 mg/kg/injection, schedule: Q01DX007 (ip), vehicle: carboxymethylcellulose (CMC)) 89 % of control; (dose: 210.0 mg/kg/injection, schedule: Q01DX007 (ip), vehicle: carboxymethylcellulose (CMC)) 61 % of control; (dose: 270.0 mg/kg/injection, schedule: Q01DX007 (ip), vehicle: carboxymethylcellulose (CMC)) 77 % of control; (dose: 320.0 mg/kg/injection, schedule: Q01DX007 (ip), vehicle: carboxymethylcellulose (CMC)) 90 % of control and 100 % of control; (dose: 478.0 mg/kg/injection, schedule: Q01DX007 (ip), vehicle: carboxymethylcellulose (CMC)) 57 % of control. The T/C (dose: 717.0 mg/kg/injection, schedule: Q01DX007 (ip), vehicle: carboxymethylcellulose (CMC)) was 65 % of control.
As for `COc1ccc2c(c[n+](C)c3c4cc5c(cc4ccc23)OCO5)c1OC`, the T/C under setting [4] was 60 % of control and the T/C under setting [5] is 83 % of control.
In the case of `C[C@H]1CC[C@@H]2[C@@H](C)[C@H]3[C@H](C[C@H]4[C@@H]5CC=C6C[C@@H](O)CC[C@]6(C)[C@H]5C[C@H](O)[C@]34C)N2C1`, the T/C runs as follows: (dose: 10.0 mg/kg/injection, schedule: Q01DX007 (sc), vehicle: steriod suspending solution) 73 % of control; (dose: 50.0 mg/kg/injection, schedule: Q01DX007 (sc), vehicle: steriod suspending solution) 44 % of control; (dose: 100.0 mg/kg/injection, schedule: Q01DX007 (sc), vehicle: steriod suspending solution) 62 % of control.
Regarding `N#CCOC(=O)CCC(NC(=O)OCc1ccccc1)C(N)=O` (centres undefined), the T/C under setting [4] is 94 % of control.
Consider `CN(C)[C@@H]1C(=O)C(C(=O)NCc2nc3[nH]cnc(=S)c3[nH]2)=C(O)[C@@]2(O)C(=O)C3=C(O)c4c(O)cccc4[C@@](C)(O)[C@H]3C[C@@H]12`, for which the T/C is 71 % of control (dose: 14.0 mg/kg/injection, schedule: Q01DX007 (ip), vehicle: carboxymethylcellulose (CMC)); 58 % of control (dose: 28.0 mg/kg/injection, schedule: Q01DX007 (ip), vehicle: carboxymethylcellulose (CMC)); 54 % of control and 62 % of control (dose: 56.0 mg/kg/injection, schedule: Q01DX007 (ip), vehicle: carboxymethylcellulose (CMC)); 29 % of control (dose: 224.0 mg/kg/injection, schedule: Q01DX007 (ip), vehicle: carboxymethylcellulose (CMC)).
`CC(=O)Nc1cc2c(cc1[N+](=O)[O-])-c1ccccc1C2O` (centres undefined): the T/C (dose: 98.0 mg/kg/injection, schedule: Q01DX007 (ip), vehicle: other) was 100 % of control; the T/C (dose: 148.0 mg/kg/injection, schedule: Q01DX007 (ip), vehicle: other) was 120 % of control; the T/C (dose: 333.0 mg/kg/injection, schedule: Q01DX007 (ip), vehicle: other) is 65 % of control and 67 % of control; the T/C (dose: 333.0 mg/kg/injection, schedule: Q01DX007 (ip), vehicle: saline) is 81 % of control; the T/C (dose: 500.0 mg/kg/injection, schedule: Q01DX007 (ip), vehicle: other) was 25 % of control; the T/C (dose: 500.0 mg/kg/injection, schedule: Q01DX007 (ip), vehicle: saline) was 93 % of control. Further, the T/C (dose: 750.0 mg/kg/injection, schedule: Q01DX007 (ip), vehicle: saline) was 64 % of control.
As for `CC(=O)OCC1OC(n2cnc3c(=S)nc[nH]c32)C(OC(C)=O)C1OC(C)=O` (centres undefined), the T/C was 81 % of control under setting [3]; 75 % of control (dose: 30.0 mg/kg/injection, schedule: Q01DX007 (ip), vehicle: carboxymethylcellulose (CMC)); 54 % of control (dose: 45.0 mg/kg/injection, schedule: Q01DX007 (ip), vehicle: carboxymethylcellulose (CMC)).
Consider `C[C@H]1C[C@@H]2[C@H](C(=O)C[C@@]3(C)[C@H]2CC[C@]3(O)C(=O)CO)[C@@]2(C)C=CC(=O)C=C12`, for which the T/C reads like this: (dose: 221.0 mg/kg/injection, schedule: Q01DX007 (sc), vehicle: steriod suspending solution) 41 % of control; (dose: 330.0 mg/kg/injection, schedule: Q01DX007 (sc), vehicle: steriod suspending solution) 43 % of control and 65 % of control; (dose: 739.0 mg/kg/injection, schedule: Q01DX007 (sc), vehicle: steriod suspending solution) 13 % of control.
Consider `C[C@@H]1C[C@](O)([C@@H](C)Cl)C(=O)O[C@@H]2CCN3CC=C(COC(=O)[C@]1(C)O)[C@H]23`, for which the T/C (dose: 25.0 mg/kg/injection, schedule: Q01DX007 (ip), vehicle: saline) was 74 % of control.
With `NC(=O)CCC(NC(=O)c1ccc([N+](=O)[O-])cc1)C(=O)O` (centres undefined), the T/C runs as follows: (dose: 62.5 mg/kg/injection, schedule: Q01DX007 (ip), vehicle: other) 69 % of control; (dose: 125.0 mg/kg/injection, schedule: Q01DX007 (ip), vehicle: other) 50 % of control; (dose: 250.0 mg/kg/injection, schedule: Q01DX007 (ip), vehicle: other) 63 % of control.
Consider `CCCS/C(N)=N/N=C/c1ccc([N+](=O)[O-])o1`, for which the T/C was 81 % of control (dose: 13.5 mg/kg/injection, schedule: Q#A X014 (ip), vehicle: water); 53 % of control (dose: 20.0 mg/kg/injection, schedule: Q#A X014 (ip), vehicle: water); 67 % of control (dose: 27.0 mg/kg/injection, schedule: Q01DX007 (ip), vehicle: other); 61 % of control (dose: 27.0 mg/kg/injection, schedule: Q01DX007 (ip), vehicle: water); 34 % of control (dose: 30.0 mg/kg/injection, schedule: Q#A X014 (ip), vehicle: water); 45 % of control (dose: 40.0 mg/kg/injection, schedule: Q01DX007 (ip), vehicle: water). Also, the T/C (dose: 60.0 mg/kg/injection, schedule: Q01DX007 (ip), vehicle: water) was 59 % of control.
`CCCCN(CCCC)C(=O)c1[nH]cnc1N`: the T/C was 55 % of control under setting [5]; 58 % of control (dose: 200.0 mg/kg/injection, schedule: Q01DX007 (ip), vehicle: carboxymethylcellulose (CMC)); 87 % of control under setting [1]; 57 % of control (dose: 375.0 mg/kg/injection, schedule: Q01DX007 (ip), vehicle: carboxymethylcellulose (CMC)).
As for `NCC(O)c1ccc(O)c(O)c1` (centres undefined), the T/C is, setting by setting: (dose: 3.1 mg/kg/injection, schedule: Q01DX007 (ip), vehicle: saline) 84 % of control; (dose: 12.5 mg/kg/injection, schedule: Q01DX007 (ip), vehicle: saline) 57 % of control and 77 % of control.

For orientation: T/C means the ratio of treated to control.
